One compound from patent US7863334B2, “Guanylhydrazone compounds, compositions, methods of making and using” (Cytokine PharmaSciences, Inc., priority 2004, dated 2011) can be followed below.

Assay [1] relates to nitric oxide release from LPS-induced RAW 264.7 cells. Put plainly: Inhibition of LPS-induced nitric oxide (nitrite) release from RAW 264.7 cells (Griess reagent). It counts as cell-based. The conditions noted are these: RAW 264.7 murine macrophage cells, 1 hour pretreatment, 100 ng/mL LPS, 24 hours. The procedure:
(§1) The present inventors measured the ability of eight test articles to inhibit LPS-induced nitric oxide and TNFα secretion from murine macrophage cells.
(§2) The studies were conducted in RAW 264.7 cultures.
(§3) RAW 264.7 murine macrophage cells (ATCC, TIB-71) were maintained at 5% CO2, 37° C. in RPMI media (Fisher 15-040-CV, 1 mg/L glutathione) with 10% fetal bovine serum (fbs, Fisher, lot 05069F) plus 2 mM L-glutamine and penicillin/streptomycin. The cells were subcultured every two to three days. Cells were plated in tissue culture treated 96 well plates at a density of 1×10^5 cells/well and incubated at 5% CO2, 37° C. for at least one hour prior to initiation of the assay. The cells were washed with RPMI with 10% fbs prior to the initiation of the assay.
The compounds were weighed, dissolved in DMSO for stock solutions of 10 mg/mL and serially diluted in RPMI. The plated RAW 264.7 cells were pretreated in duplicate with the test compounds, control (CNI-1493) or vehicle for 1 hour at final concentrations of 0, 0.1, 1.0, 10, and 100 μg/mL. […]
To 50 μL of cell-free media, 50 μL of Griess Reagent (1 part 0.1% naphthylethylenediamine diHCl, 1 part 1.32% sulfanilimide in 60% acetic acid) was added and incubated for no more than 5 minutes at ambient temperature. The samples were read on a microtiter plate reader at 540 nm and compared to a 0.1-5 nmol nitrite standard curve.

Assay [2] deals with TNFα release from LPS-induced RAW 264.7 cells. Put plainly: Inhibition of LPS-induced TNFα release from RAW 264.7 cells (ELISA). The conditions noted are these: RAW 264.7 murine macrophage cells, 1 hour pretreatment, 100 ng/mL LPS, 24 hours. It counts as cell-based. The method, then:
as §1, §2, §3
The compounds were weighed, dissolved in DMSO for stock solutions of 10 mg/mL and serially diluted in RPMI. The plated RAW 264.7 cells were pretreated in duplicate with the test compounds, control (CNI-1493) or vehicle for 1 hour at final concentrations of 0, 0.1, 1.0, 10, and 100 μg/mL. The cells were stimulated with 100 ng/mL LPS (E. coli 0111:B4) and incubated at 5% CO2, 37° C. for 24 hours. The media was collected and stored at −20° C.
In general terms: An ELISA detects its analyte on a solid surface through an enzyme-linked reagent.

With `C/C(=N\N=C(N)N)c1cc(NC(=O)CCCCCCCCC(=O)Nc2cc(/C(C)=N/N=C(N)N)cc(/C(C)=N/N=C(N)N)c2)cc(/C(C)=N/N=C(N)N)c1.Cl.Cl.Cl.Cl` [CNI-1493], the “IC50 for inhibition of nitric oxide release” value in assay [1] is listed as “approximately 5.5 μg/mL”. In assay [2], the “IC50 for inhibition of release of TNFα” value was “approximately 8 μg/mL”.
